From patent US11465984B2, “Compound having ERK kinase inhibitory activity and use thereof” (SHANGHAI HAIHE PHARMACEUTICAL CO., LTD., priority 2017, dated 2022) come the findings set out here.

≈ marks a conversion by molar mass, not a printed value. Like-named read-outs stand apart in the source and are kept apart here.

In general, efflux ratio refers to the permeability from basolateral to apical divided by that in the opposite direction, in the common usage.

Data set [1] is described as follows: Thermodynamic solubility assay. The format is physicochemical. Conditions: thermodynamic from solid, 37° C. The protocol:
The thermodynamic solubility of the compounds of the invention was determined in this Example
(3) Assay Protocol: Blank Vehicle with Different pH Values: • PH7.4: DPBS • PH6.8: 9900 μL HBSS+100 μL HEPS+5 μL 2N NaOH • […]: DPBS adjusted with 2N HCl to pH 2.0 Incubation: • About 3 mg of the compound was weighed, added with 500 μL of blank vehicle, and shaked at 37° C. for 24 h. Sample Treatment: • After incubation, the samples were centrifuged for 30 min, and the supernatant was transferred to a new EP tube and further centrifuged for 30 min • After centrifugation, the samples were diluted by 100 times with ACN/H2O (V/V, 1:1). • Linear concentration range from 12.5 nM to 1 mM was configured with ACN/H2O (V/V, 1:1). Biological Analysis: • All samples were mixed with water at the 1:1 ratio by volume, centrifuged at 4000 rpm for 5 min, and analyzed by LC-MS/MS. Analysis Methods:
Chromatography Conditions: • Analysis column: Acquity BEH C18 (1.7 μm; 2.1×50 mm, Waters) • Mobile phase A: 0.1% FA in H2O • Mobile phase B: 0.1% FA in CAN/MEOH (9:1, V/V) • Gradient: as shown in the table below.
MS/MS System • Multiple Reaction Monitoring (MRM) mode was used: […]

Data set [2] can be described thus: Permeability study, Caco-2 cell in vitro drug absorption model. The format is in vitro ADME. Conditions: human. The protocol: The permeability of Compound P9 of the invention and Compound A107 of WO2017/114510A1 was determined using Caco-2 cell in vitro drug absorption model in this Example
• Cell: human intestinal cancer Caco2 (HTB-37, ATCC) • Petri dish: 10 cm petri dish (430167, Corning) • Millicell-24 microplage (PSHT010R5, Millipore) • Buffer: PBS (14190, Invitrogen) • HEPES (H0887, Sigma) • HBSS (H8264, Sigma) • Substances related to cell culture: • high glucose DMEM medium (L0103-500, Biowest) • fetal bovine serum (S1810-500, Biowest) • trypsin (255200-056, Invitrogen) • nonessential amino acid (M7145, Sigma) • penicillin and streptomycin (B-13234, GIBCO) • sodium pyruvate (11360-070, Invitrogen) • L-glutamine (25030-081, Invitrogen) • Relevant reagents: fluorescein (L0144, Sigma) • propranolol (P831800, Sigma) • colchicine (C9754, Sigma) • atenolol (A7655, Sigma) • Instruments: liquid chromatography (Waters Acquity UPLC I-class, Waters) • mass spectrometry (Waters xevo TQ-S MS/MS, Waters) • ohmmeter (Millicell-ERS, Thermo) • microplate reader (Infinite Pro, Tecan) (2). Assay Protocol:
• 1) The Caco-2 cells were revived, and incubated in a 10 cm petri dish in a 5-6% CO2 and 95% RH incubator at 37° C. […] The cells were re-suspended in 6 ml complete medium, and counted three times. • 3) The cells were harvested by centrifugation at 1000 rpm for 5 min, and diluted in suspension. […]

With `Cn1nccc1Nc1cc(-c2cc(F)c3c(c2)CCN3C(=O)Cc2cccnc2Cl)ccn1` [Example P9, 2-(2-chloropyridin-3-yl)-1-(7-fluoro-5-(2-((1-methyl-1H-pyrazol-5-yl)amino)pyridin-4-yl)indolin-1-yl)ethan-1-one], the solubility at 24 h in data set [1] (HBSS/HEPES 10 mM/BSA 0.1% pH 6.8, pH 6.8, aqueous buffer, read-out: Maximum solubility in pH 6.8 HBSS/HEPES 10 mM/BSA 0.1%) amounted to 267 ± 3 µM (≈ 124 µg/mL); in data set [1] (PBS (DPBS) pH 2.0, pH 2, aqueous buffer, read-out: Maximum solubility in pH 2.0 PBS) it was 2850 ± 62 µM (≈ 1320 µg/mL); in data set [1] (PBS buffer, pH 7.4, aqueous buffer, read-out: Maximum solubility in pH 7.4 PBS), 544 ± 5.3 µM (≈ 252 µg/mL). Moreover, the efflux ratio at 1.5 h, 20 μm in data set [2] stood at 1.3. Besides, in data set [2] (Papp, Apical to Basal, 20 μm, 1.5 h, read-out: apparent permeability coefficient (Caco-2) From A to B), the Papp A→B at 1.5 h, 20 μm is 23.7 ×10⁻⁶ cm/s.
